IC50 and EC50 data for 1 molecule are collected here from US7745422B2, “Bisphosphonate compounds and methods for bone resorption diseases, cancer, bone pain, immune disorders, and infectious diseases” (The Board of Trustees of the University of Illinois, priority 2004, dated 2010).

≈ marks a conversion by molar mass, not a printed value. Like-named read-outs stand apart in the source and are kept apart here.

The subject of one test is Dictyostelium discoideum. Nature of the test: D. discoideum cell growth inhibition. In kind it is cell-based. The conditions noted are these: Dictyostelium discoideum. An excerpt: (§1) We then investigated the activity of each compound in inhibiting the FPPS from L. major, in Dictyostelium discoideum growth inhibition and in γδ T cell activation. We used the FPPS from L. major since this enzyme is the putative bisphosphonate target in several trypanosomatid species.

A further test addresses T1, human FPPS (Homo sapiens, UniProt P14324).
T1 sequence (P14324 1-419): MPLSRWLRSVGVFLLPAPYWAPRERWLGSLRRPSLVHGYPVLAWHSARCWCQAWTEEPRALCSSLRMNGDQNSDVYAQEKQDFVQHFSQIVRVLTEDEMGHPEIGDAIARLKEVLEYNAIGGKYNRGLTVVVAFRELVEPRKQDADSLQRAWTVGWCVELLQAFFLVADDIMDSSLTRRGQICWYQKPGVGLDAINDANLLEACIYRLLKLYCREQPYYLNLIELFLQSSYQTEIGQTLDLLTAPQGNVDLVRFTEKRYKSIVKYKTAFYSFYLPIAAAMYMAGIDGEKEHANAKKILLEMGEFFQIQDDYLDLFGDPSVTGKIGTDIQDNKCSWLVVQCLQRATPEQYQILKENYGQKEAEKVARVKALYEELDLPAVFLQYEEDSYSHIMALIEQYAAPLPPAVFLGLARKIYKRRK
Nature of the test: human FPPS assay. In kind it is biochemical.

The subject of the next test is fetal mouse metatarsals. Nature of the test: bone resorption assay: 45Ca2+ release from 17-day old fetal mouse metatarsals. Conditions: Mus musculus; Table 4. Format: cell-based. The protocol: Compounds are tested in a bone resorption assay: ^45Ca^2+ release from 17-day old fetal mouse metatarsals (ref. 37).
The subject of a further test is Vγ2Vδ2 T cells. Nature of the test: gammadelta T cell stimulation (TNF-α release assay). Format: cell-based, human. The conditions noted are these: Homo sapiens, T-cell.
Excerpt: as §1

For test [1], the system named is human nasopharyngeal carcinoma cells. Briefly: Toxicity testing in human nasopharyngeal carcinoma cells. Conditions: read-out: (5) Toxicity IC50. Format: cell-based. The protocol: We have obtained data for selected bisphosphonate compounds in the contexts of D. discoideum assays, human FPPS assays, gammadelta T cell stimulation assays, and bone resorption assays. […] Some toxicity testing was also performed. See Table 4 (in some instances, the same data depicted elsewhere herein, e.g., in Table 1, may be presented again to facilitate comparative analysis).

The next test concerns T. cruzi. Briefly: Activity against T. cruzi. In kind it is cell-based. The conditions noted are these: Trypanosoma cruzi; Table 5; read-out: (8) T. cruzi IC50. An excerpt: We have obtained data for selected bisphosphonate compounds against parasites including Trypanosoma brucei, Trypanosoma cruzi, and Leishmania major. […] See Table 5 (in some instances, the same data depicted elsewhere herein, e.g., in Table 1, may be presented again to facilitate comparative analysis).

The term IC50 denotes the concentration needed to halve the response being measured. Consider `O=P([O-])(O)C(O)(C[n+]1ccccc1)P(=O)(O)O` (stereo not drawn) [Compound 278], for which the IC50 in the test with Dictyostelium discoideum (read-out: (1) D. discoideum IC50) was 2.6 µM; in the test with Dictyostelium discoideum (read-out: D. discoideum IC50) it was 2.1 µM; against human FPPS, 1.6 µM; in the test with fetal mouse metatarsals, 0.67 µM; in test [1], 300 mg/L (≈ 1060 µM); with T. cruzi, 3.07 mg/L (≈ 10.8 µM). Besides, the EC50 is 5.1 µM in the test on Vγ2Vδ2 T cells (read-out: (3) gammadelta T cell stimulation EC50); 4.8 µM in the test on Vγ2Vδ2 T cells (read-out: gammadelta T cell stimulation EC50); 5.1 µM with Vγ2Vδ2 T cells (read-out: gammadelta T cell stimulation, EC50).
